# Laboratory results reported in US20250066864A1, “METHODS FOR IDENTIFYING ADAR1 INHIBITORS, AND COMPOSITIONS AND METHODS OF USE IN TREATING CANCER” (The Wistar Institute of Anatomy and Biology, priority 2021, published 2025).
# “Also recorded” adds a separate entry of the source.
# Experiments:
# [1] = water solubility by LC-MS/MS; assay type: physicochemical; details: water with 1% DMSO, kinetic from dmso stock, tested at 100 μM in 1% DMSO
# ADAR1p110-E912A = target: T1, ADAR1p110-E912A (Homo sapiens, UniProt P55265, E912A); assay: surface plasmon resonance (Biacore T200), ADAR1p110-E912A; assay type: binding; details: SPR
# T1 sequence (P55265 1-931 isoform P55265-5 E617A): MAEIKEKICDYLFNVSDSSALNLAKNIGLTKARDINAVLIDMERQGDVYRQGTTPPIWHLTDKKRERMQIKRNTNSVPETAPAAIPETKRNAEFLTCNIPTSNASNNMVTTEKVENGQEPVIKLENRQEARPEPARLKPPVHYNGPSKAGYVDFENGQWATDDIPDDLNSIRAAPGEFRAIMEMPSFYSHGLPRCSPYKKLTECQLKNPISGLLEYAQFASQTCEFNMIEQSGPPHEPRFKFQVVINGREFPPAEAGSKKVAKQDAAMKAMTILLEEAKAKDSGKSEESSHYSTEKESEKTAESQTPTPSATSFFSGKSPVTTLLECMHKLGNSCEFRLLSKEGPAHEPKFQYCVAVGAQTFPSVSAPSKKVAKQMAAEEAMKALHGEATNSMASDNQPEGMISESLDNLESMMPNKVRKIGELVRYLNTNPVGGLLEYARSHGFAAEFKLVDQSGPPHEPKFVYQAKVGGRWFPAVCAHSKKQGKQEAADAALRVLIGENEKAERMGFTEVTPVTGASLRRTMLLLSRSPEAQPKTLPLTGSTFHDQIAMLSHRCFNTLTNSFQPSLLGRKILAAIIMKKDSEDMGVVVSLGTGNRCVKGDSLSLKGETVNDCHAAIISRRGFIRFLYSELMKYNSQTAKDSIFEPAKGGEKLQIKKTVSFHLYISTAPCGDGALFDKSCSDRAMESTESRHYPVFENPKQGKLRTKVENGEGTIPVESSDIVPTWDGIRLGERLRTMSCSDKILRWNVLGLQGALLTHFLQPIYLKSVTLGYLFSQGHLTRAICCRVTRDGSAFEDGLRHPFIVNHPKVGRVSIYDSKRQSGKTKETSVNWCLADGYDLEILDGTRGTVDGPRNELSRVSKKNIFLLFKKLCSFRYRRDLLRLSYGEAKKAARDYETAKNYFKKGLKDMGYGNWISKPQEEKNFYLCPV
# Excerpt: We synthesized 2 additional analogs of Compound #13 for preliminary structure activity relationships (SAR), namely, #13-Analog 1 and #13-Analog 2 (Table 3). Compound #13-Analog 1 lacks the 4-cyano moiety and #13-Analog 2 shifts the cyano to the 2-position of the phenyl ring. […] We hypothesized that the cyano-phenyl moiety will coordinate with the zinc atom in the active site when bound to ADAR1. We evaluated the ability of Compound #13 to bind to ADAR1 using surface plasmon resonance (SPR) on the Biacore T200. […] We modeled Compound #13 into the ADAR2 active site (56).
structure (smiles),measurement,setting,value
"N#Cc1ccc(NC(=O)c2sc3ccccc3c2Cl)cc1 [Compound #13, 3-chloro-N-(4-cyanophenyl)-1-benzothiophene-2-carboxamide]",solubility,[1],0.59 µM
same,binding to mutant ADAR1p110-E912A,ADAR1p110-E912A,did not bind; also recorded: not to mutant E912A
